Key:
[1] = target: cellular kallikrein activity (Homo sapiens (Human), UniProt P03952); test: In vitro cellular assay (contact assay): kallikrein activity in ellagic acid-activated human plasma, Z-FR-2-AMC substrate; format: biochemical; settings: human plasma activated with ellagic acid, 37° C.
Experimental: The ability of the compounds disclosed herein to inhibit cellular kallikrein activity was quantified and the respective EC50 value was determined.
All dilutions were prepared in an assay buffer comprising 50 mM Tris-HCl pH 7.2, 150 mM NaCl, and 0.01% Triton X-100.
The ten solutions of the test compounds, prepared by serial dilution, were further diluted 50-fold in the assay buffer.
Human plasma is thawed on ice and centrifuged for 15 min at 4° C. to remove platelets. A 1 mM stock solution of ellagic acid is diluted to 8 μM and mixed with human plasma, after removing platelets, at a ratio of 1:0.8.
A 22.5 μL volume of the final mixture of human plasma and ellagic acid was added to a 96-well microwell plate and the plate was incubated for 15 min at 37° C.
The CINH inhibitor at various concentrations, prepared by serial dilutions as described above, were added to the inhibitor control wells. […] Each CINH concentration is tested in duplicates.
The test compounds at various concentrations, also prepared by serial dilutions as described above, are added to the test wells. […] Each test compound concentration was tested in duplicates.
In addition to the inhibitor control and test wells, the 96 well assay plate includes positive control wells which contained the mixture of human plasma and ellagic acid without C1NH inhibitor or test compounds, and background wells which contained neither the mixture of human plasma and ellagic acid nor the test compounds. The total volume of liquid in positive control and background wells was brought up to 35 μL, using the assay buffer.
The assay plate containing C1NH inhibitors and test compounds mixed with human plasma and ellagic acid and appropriate controls was incubated at 37° C. for 5 min. […] The reagents were mixed well by shaking the plate gently for 30 sec.
The enzyme reaction was quantified by immediate kinetic reading of the assay plate using excitation/emission wavelengths of 330 nm/440 nm respectively. Fluorescence intensity was recorded for 60 min, using a time interval of 43 sec.
The inhibition activity of the test compounds were evaluated using the EC50 values, calculated according to the dose-response curve of the test compounds, fitted using the “log(inhibitor)−response (variable slope)” equation in GraphPadPrism software (GraphPad Software, Inc.).
The percentage inhibition was calculated using the following equation:
[formula] where, Mean (BG) is the average value of the fluorescence intensity of the background wells and Mean (PC) is the average value of the fluorescence intensity of the positive control wells.
Table 4 provides the EC50 values of various compounds disclosed herein.

human plasma kallikrein = human plasma kallikrein (Homo sapiens (Human), UniProt P03952); test: In vitro enzyme inhibition of human plasma kallikrein (PFR-AMC cleavage); format: biochemical; settings: Pro-Phe-Arg-AMC substrate, 37° C., read-out: hPK IC50
In short: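 Human plasma kallikrein and compound, diluted in 50 mM Tris-HCl pH 7.5, 150 mM NaCl, 0.01% Triton X-100, preincubated 5 min at 37 °C before PFR-AMC was added.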

cellular kallikrein activity, sequence (P03952 391-638): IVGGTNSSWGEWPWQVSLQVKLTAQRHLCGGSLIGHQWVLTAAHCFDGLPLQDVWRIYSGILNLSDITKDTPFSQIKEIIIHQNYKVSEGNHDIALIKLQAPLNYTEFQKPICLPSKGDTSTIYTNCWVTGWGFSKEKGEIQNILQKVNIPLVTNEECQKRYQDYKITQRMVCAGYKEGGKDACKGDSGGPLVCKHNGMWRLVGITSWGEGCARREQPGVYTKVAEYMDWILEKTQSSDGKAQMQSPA
cellular kallikrein activity, sequence (P03952 20-390 partner): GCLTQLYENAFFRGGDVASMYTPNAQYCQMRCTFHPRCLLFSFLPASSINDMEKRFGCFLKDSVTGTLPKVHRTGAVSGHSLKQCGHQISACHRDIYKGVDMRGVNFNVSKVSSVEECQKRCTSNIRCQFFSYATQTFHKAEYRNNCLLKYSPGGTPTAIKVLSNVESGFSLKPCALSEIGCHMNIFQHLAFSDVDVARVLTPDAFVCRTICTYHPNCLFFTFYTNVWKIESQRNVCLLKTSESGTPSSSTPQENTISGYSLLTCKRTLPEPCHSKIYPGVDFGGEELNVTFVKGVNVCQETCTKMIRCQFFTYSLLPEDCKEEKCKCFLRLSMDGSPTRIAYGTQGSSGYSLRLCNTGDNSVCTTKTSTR
human plasma kallikrein, sequence (P03952 391-638): as the sequence (P03952 391-638) above
human plasma kallikrein, sequence (P03952 20-390 partner): as the sequence (P03952 20-390 partner) above

Row | SMILES | EC50 [1] | IC50 (human plasma kallikrein)
1 | Cc1cc(N)nc(C)c1CNC(=O)c1ccnc(Cc2cnc3[nH]c(C(F)(F)F)cc3c2)c1 [Example 152, N-((6-amino-2,4-dimethylpyridin-3-yl)methyl)-2-((2-(trifluoromethyl)-1H-pyrrolo[2,3-b]pyridin-5-yl)methyl)isonicotinamide] | 100 to 1000 nM | < 100 nM
2 | Cc1cnc2c(S(N)(=O)=O)cc(Cc3cc(C(=O)NCc4cnc5[nH]cc(Cl)c5c4)ccn3)cc2c1 [Example 291, N-((3-chloro-1H-pyrrolo[2,3-b]pyridin-5-yl)methyl)-2-((3-methyl-8-sulfamoylquinolin-6-yl)methyl)isonicotinamide] | < 100 nM | < 100 nM
3 | O=C(NCc1cnc2[nH]cc(Cl)c2c1)c1ccnc(Cc2ccc3ncc(C4CC4)cc3c2)c1 [Example 246, N-((3-chloro-1H-pyrrolo[2,3-b]pyridin-5-yl)methyl)-2-((3-cyclopropylquinolin-6-yl)methyl)isonicotinamide] | 100 to 1000 nM | < 100 nM
4 | Cc1cc(N)nc(C)c1CNC(=O)c1ccnc(C(C)(O)c2ccc3ncc(Cl)cc3c2)c1 (stereo not shown) [Example 277, N-((6-amino-2,4-dimethylpyridin-3-yl)methyl)-2-(1-(3-chloroquinolin-6-yl)-1-hydroxyethyl)isonicotinamide] | 100 to 1000 nM | 100 to 1000 nM
5 | Cc1nc2ccc(Cc3cc(C(=O)NCc4ccc(N)nc4C)ccn3)cc2cc1Cl [Example 239, N-((6-amino-2-methylpyridin-3-yl)methyl)-2-((3-chloro-2-methylquinolin-6-yl)methyl)isonicotinamide] | 100 to 1000 nM | < 100 nM
6 | CC(C)(O)c1cc(Cc2cc(C(=O)NCc3n[nH]c4ccc(Cl)cc34)ccn2)cc2cc(Cl)cnc12 [Example 225, N-((5-chloro-1H-indazol-3-yl)methyl)-2-((3-chloro-8-(2-hydroxypropan-2-yl)quinolin-6-yl)methyl)isonicotinamide] | 100 to 1000 nM | < 100 nM
7 | Cc1nc(N)ccc1CNC(=O)c1ccnc(Cc2ccc3ncc(CC(F)F)cc3c2)c1 [Example 279, N-((6-amino-2-methylpyridin-3-yl)methyl)-2-((3-(2,2-difluoroethyl)quinolin-6-yl)methyl)isonicotinamide] | 100 to 1000 nM | < 100 nM
8 | CC(C)(O)c1cc(Cc2cc(C(=O)NCc3ccc4[nH]cc(Cl)c4c3F)ccn2)cc2cc(Cl)cnc12 [Example 222, N-((3-chloro-4-fluoro-1H-indol-5-yl)methyl)-2-((3-chloro-8-(2-hydroxypropan-2-yl)quinolin-6-yl)methyl)isonicotinamide] | 100 to 1000 nM | < 100 nM
9 | O=C(NCc1cc2c(Cl)c[nH]c2cc1F)c1ccnc(Cc2ccc3ncc(C4CC4)cc3c2)c1 [Example 245, N-((3-chloro-6-fluoro-1H-indol-5-yl)methyl)-2-((3-cyclopropylquinolin-6-yl)methyl)isonicotinamide] | 100 to 1000 nM | < 100 nM
10 | Cc1nc(N)ccc1CNC(=O)c1ccnc(Cc2cc3cc(Cl)cnc3cn2)c1 [Example 149, N-((6-amino-2-methylpyridin-3-yl)methyl)-2-((3-chloro-1,7-naphthyridin-6-yl)methyl)isonicotinamide] | < 100 nM | < 100 nM
11 | Cc1cc(N)nc(C)c1CNC(=O)c1cc(CC(N)=O)nc(Cc2ccc3ncc(Cl)cc3c2)c1 [Example 214, N-((6-amino-2,4-dimethylpyridin-3-yl)methyl)-2-(2-amino-2-oxoethyl)-6-((3-chloroquinolin-6-yl)methyl)isonicotinamide] | < 100 nM | < 100 nM
12 | Cc1c(CNC(=O)c2ccnc(Cc3ccc4ncc(C(F)(F)F)cc4c3)c2)ccc2c(N)nccc12 [Example 184, N-((1-amino-5-methylisoquinolin-6-yl)methyl)-2-((3-(trifluoromethyl)quinolin-6-yl)methyl)isonicotinamide] | < 100 nM | < 100 nM

More lines, now with the values ahead:

Row | EC50 [1] | IC50 (human plasma kallikrein) | SMILES
13 | < 100 nM | < 100 nM | Cc1cc(CN)nc(C)c1CNC(=O)c1ccnc(Cc2ccc3ncc(C(F)(F)F)cc3c2)c1 [Example 172, N-((6-(aminomethyl)-2,4-dimethylpyridin-3-yl)methyl)-2-((3-(trifluoromethyl)quinolin-6-yl)methyl)isonicotinamide]
14 | < 100 nM | < 100 nM | CCc1cnc2ccc(Cc3cc(C(=O)NCc4c(C)cc(N)nc4C)ccn3)cc2c1 [Example 286, N-((6-amino-2,4-dimethylpyridin-3-yl)methyl)-2-((3-ethylquinolin-6-yl)methyl)isonicotinamide]
15 | < 100 nM | < 100 nM | Nc1nccc2cc(CNC(=O)c3ccnc(Cc4ccc5ncc(C(F)(F)F)cc5c4)c3)ccc12 [Example 232, N-((1-aminoisoquinolin-6-yl)methyl)-2-((3-(trifluoromethyl)quinolin-6-yl)methyl)isonicotinamide]
16 | < 100 nM | < 100 nM | Cc1cc(N)nc(C)c1CNC(=O)c1cc(CN)nc(Cc2ccc3ncc(Cl)cc3c2)c1 [Example 211, N-((6-amino-2,4-dimethylpyridin-3-yl)methyl)-2-(aminomethyl)-6-((3-chloroquinolin-6-yl)methyl)isonicotinamide]
17 | < 100 nM | < 100 nM | CC(C)(O)c1cc(Cc2cc(C(=O)NCc3ccc4c(N)nccc4c3)ccn2)cc2cc(Cl)cnc12 [Example 224, N-((1-aminoisoquinolin-6-yl)methyl)-2-((3-chloro-8-(2-hydroxypropan-2-yl)quinolin-6-yl)methyl)isonicotinamide]
18 | < 100 nM | < 100 nM | Cc1cc2c(N)nccc2cc1CNC(=O)c1ccnc(Cc2ccc3ncc(Cl)cc3c2)c1 [Example 181, N-((1-amino-7-methylisoquinolin-6-yl)methyl)-2-((3-chloroquinolin-6-yl)methyl)isonicotinamide]
19 | < 100 nM | < 100 nM | Cc1cc(N)nc(C)c1CNC(=O)c1ccnc(Cc2cnc3ncc(Cl)cc3c2)c1 [Example 204, N-((6-amino-2,4-dimethylpyridin-3-yl)methyl)-2-((6-chloro-1,8-naphthyridin-3-yl)methyl)isonicotinamide]
20 | < 100 nM | < 100 nM | Cc1cnc2c(S(N)(=O)=O)cc(Cc3cc(C(=O)NCc4ccc5c(N)nccc5c4)ccn3)cc2c1 [Example 289, N-((1-aminoisoquinolin-6-yl)methyl)-2-((3-methyl-8-sulfamoylquinolin-6-yl)methyl)isonicotinamide]
21 | < 100 nM | < 100 nM | Cc1cc(N)nc(C)c1CNC(=O)c1ccnc(Cc2cc(C(C)(C)O)c3ncc(Cl)cc3c2)c1 [Example 219, N-((6-amino-2,4-dimethylpyridin-3-yl)methyl)-2-((3-chloro-8-(2-hydroxypropan-2-yl)quinolin-6-yl)methyl)isonicotinamide]
22 | < 100 nM | < 100 nM | Cc1cc(N)nc(C)c1CNC(=O)c1ccnc(Cc2cc(CN)c3ncc(Cl)cc3c2)c1 [Example 241, N-((6-amino-2,4-dimethylpyridin-3-yl)methyl)-2-((8-(aminomethyl)-3-chloroquinolin-6-yl)methyl)isonicotinamide]
23 | < 100 nM | < 100 nM | Nc1nccc2cc(CNC(=O)c3ccnc(Cc4ccc5ncc(C6CC6)cc5c4)c3)ccc12 [Example 247, N-((1-aminoisoquinolin-6-yl)methyl)-2-((3-cyclopropylquinolin-6-yl)methyl)isonicotinamide]
24 | < 100 nM | < 100 nM | Cc1cc(N)nc(C)c1CNC(=O)c1cc(CC#N)nc(Cc2ccc3ncc(Cl)cc3c2)c1 [Example 213, N-((6-amino-2,4-dimethylpyridin-3-yl)methyl)-2-((3-chloroquinolin-6-yl)methyl)-6-(cyanomethyl)isonicotinamide]
25 | < 100 nM | < 100 nM | COc1cnc2ccc(Cc3cc(C(=O)NCc4c(C)cc(N)nc4C)ccn3)cc2c1 [Example 264, N-((6-amino-2,4-dimethylpyridin-3-yl)methyl)-2-((3-methoxyquinolin-6-yl)methyl)isonicotinamide]
26 | < 100 nM | < 100 nM | Cc1cc(N)nc(C)c1CNC(=O)c1ccnc(Cc2ccc3ncc(C(C)C)cc3c2)c1 [Example 254, N-((6-amino-2,4-dimethylpyridin-3-yl)methyl)-2-((3-isopropylquinolin-6-yl)methyl)isonicotinamide]
